# In patent publication US10168342B2, “Lipid probes and uses thereof” (THE SCRIPPS RESEARCH INSTITUTE, priority 2015, dated 2019):
# What was measured:
# Test in all cases: isoTOP-ABPP mapping of AEA-DA-modified peptides in Neuro2a cells
# Format in all cases: cell-based
# [1] = biological target: T1, AEA-DA-modified peptides in Neuro2a cells (Mus musculus, UniProt Q8BJ03); settings: AEA-DA-modified peptide COX15 Q8BJ03 317-331, SEQ ID NO 25; probe 100 μM, 12 replicates
# T1 construct: endogenous in cells; host or cells: Neuro2a
# [2] = biological target: T2, AEA-DA-modified peptides in Neuro2a cells (Mus musculus, UniProt Q9JKW0); settings: AEA-DA-modified peptide ARL6IP1 Q9JKW0 8-36, SEQ ID NO 15; probe 100 μM, 12 replicates
# T2 construct: endogenous in cells; host or cells: Neuro2a
# [3] = biological target: T3, AEA-DA-modified peptides in Neuro2a cells (Mus musculus, UniProt P09103); settings: probe 100 μM, 12 replicates
# T3 construct: endogenous in cells; host or cells: Neuro2a
# [4] = biological target: T4, AEA-DA-modified peptides in Neuro2a cells (Mus musculus, UniProt Q99KQ4); settings: probe 100 μM, 12 replicates
# T4 construct: endogenous in cells; host or cells: Neuro2a
# [5] = biological target: T5, AEA-DA-modified peptides in Neuro2a cells (Mus musculus, UniProt Q78ZA7); settings: AEA-DA-modified peptide NAP1L4 Q78ZA7 84-94, SEQ ID NO 66; probe 100 μM, 12 replicates
# T5 construct: endogenous in cells; host or cells: Neuro2a
# [6] = biological target: T6, AEA-DA-modified peptides in Neuro2a cells (Mus musculus, UniProt Q99JB2); settings: AEA-DA-modified peptide STOML2 Q99JB2 292-322, SEQ ID NO 107; probe 100 μM, 12 replicates
# T6 construct: endogenous in cells; host or cells: Neuro2a
# [7] = biological target: T7, AEA-DA-modified peptides in Neuro2a cells (Mus musculus, UniProt Q8BWM0); settings: AEA-DA-modified peptide PTGES2 Q8BWM0 269-279, SEQ ID NO 92; probe 100 μM, 12 replicates
# T7 construct: endogenous in cells; host or cells: Neuro2a
# [8] = biological target: T8, AEA-DA-modified peptides in Neuro2a cells (Mus musculus, UniProt Q9Z2Z6); settings: AEA-DA-modified peptide SLC25A20 Q9Z2Z6 179-195, SEQ ID NO 103; probe 100 μM, 12 replicates
# T8 construct: endogenous in cells; host or cells: Neuro2a
# [9] = biological target: T9, AEA-DA-modified peptides in Neuro2a cells (Mus musculus, UniProt P59325); settings: AEA-DA-modified peptide EIF5 P59325 272-287, SEQ ID NO 36; probe 100 μM, 12 replicates
# T9 construct: endogenous in cells; host or cells: Neuro2a
# [10] = biological target: T10, AEA-DA-modified peptides in Neuro2a cells (Mus musculus, UniProt Q99J47); settings: AEA-DA-modified peptide DHRS7B Q99J47 284-300, SEQ ID NO 31; probe 100 μM, 12 replicates
# T10 construct: endogenous in cells; host or cells: Neuro2a
# [11] = biological target: T11, AEA-DA-modified peptides in Neuro2a cells (Mus musculus, UniProt O35737); settings: AEA-DA-modified peptide HNRNPH 1 O35737 50-69, SEQ ID NO 49; probe 100 μM, 12 replicates
# T11 construct: endogenous in cells; host or cells: Neuro2a
# T11 sequence (O35737 whole entry): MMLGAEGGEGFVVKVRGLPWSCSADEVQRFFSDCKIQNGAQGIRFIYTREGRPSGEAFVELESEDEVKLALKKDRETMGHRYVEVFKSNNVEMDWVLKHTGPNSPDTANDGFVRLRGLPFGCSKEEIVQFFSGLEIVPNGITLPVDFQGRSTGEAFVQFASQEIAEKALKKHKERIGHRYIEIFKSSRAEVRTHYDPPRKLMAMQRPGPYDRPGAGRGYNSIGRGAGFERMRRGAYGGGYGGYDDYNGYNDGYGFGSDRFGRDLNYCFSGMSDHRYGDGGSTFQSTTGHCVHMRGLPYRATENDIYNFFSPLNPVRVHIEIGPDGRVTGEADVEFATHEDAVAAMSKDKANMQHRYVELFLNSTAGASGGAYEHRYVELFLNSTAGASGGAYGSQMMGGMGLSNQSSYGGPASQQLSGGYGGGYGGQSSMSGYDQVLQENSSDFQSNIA
# T4 sequence (Q99KQ4 whole entry): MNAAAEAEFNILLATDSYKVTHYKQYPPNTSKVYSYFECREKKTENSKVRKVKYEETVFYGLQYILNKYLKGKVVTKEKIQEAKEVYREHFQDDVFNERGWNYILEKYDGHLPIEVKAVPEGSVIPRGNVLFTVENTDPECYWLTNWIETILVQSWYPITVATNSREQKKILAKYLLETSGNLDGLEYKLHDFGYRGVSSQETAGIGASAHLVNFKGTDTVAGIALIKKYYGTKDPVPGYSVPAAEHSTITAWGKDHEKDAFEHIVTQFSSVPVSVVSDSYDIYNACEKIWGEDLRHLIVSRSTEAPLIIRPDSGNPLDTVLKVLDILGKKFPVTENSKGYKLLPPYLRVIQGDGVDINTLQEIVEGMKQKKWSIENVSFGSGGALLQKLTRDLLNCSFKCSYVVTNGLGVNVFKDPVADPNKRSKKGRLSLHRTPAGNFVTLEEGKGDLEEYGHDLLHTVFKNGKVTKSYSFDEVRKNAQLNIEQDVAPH
# T3 sequence (P09103 20-509): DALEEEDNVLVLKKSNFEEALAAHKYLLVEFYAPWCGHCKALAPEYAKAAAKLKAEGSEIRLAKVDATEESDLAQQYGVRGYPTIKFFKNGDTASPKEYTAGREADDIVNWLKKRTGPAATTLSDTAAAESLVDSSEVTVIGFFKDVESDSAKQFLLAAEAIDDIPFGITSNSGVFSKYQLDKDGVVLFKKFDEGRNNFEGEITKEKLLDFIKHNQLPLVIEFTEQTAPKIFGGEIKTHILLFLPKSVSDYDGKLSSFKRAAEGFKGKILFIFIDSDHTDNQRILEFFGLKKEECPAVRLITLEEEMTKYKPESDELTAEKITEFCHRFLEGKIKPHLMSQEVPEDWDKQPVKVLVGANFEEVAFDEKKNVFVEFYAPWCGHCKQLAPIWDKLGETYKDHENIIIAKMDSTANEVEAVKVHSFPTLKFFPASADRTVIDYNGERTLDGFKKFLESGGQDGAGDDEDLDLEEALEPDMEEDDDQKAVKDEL
# T6 sequence (Q99JB2 29-353): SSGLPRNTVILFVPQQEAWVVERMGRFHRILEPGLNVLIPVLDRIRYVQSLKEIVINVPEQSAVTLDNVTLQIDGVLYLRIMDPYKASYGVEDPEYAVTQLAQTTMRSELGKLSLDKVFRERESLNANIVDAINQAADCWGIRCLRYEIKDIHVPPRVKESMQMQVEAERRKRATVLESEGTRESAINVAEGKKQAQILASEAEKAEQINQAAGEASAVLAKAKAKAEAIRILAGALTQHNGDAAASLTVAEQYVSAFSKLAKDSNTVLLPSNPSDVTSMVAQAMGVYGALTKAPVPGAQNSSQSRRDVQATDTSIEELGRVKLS
# T7 sequence (Q8BWM0 whole entry): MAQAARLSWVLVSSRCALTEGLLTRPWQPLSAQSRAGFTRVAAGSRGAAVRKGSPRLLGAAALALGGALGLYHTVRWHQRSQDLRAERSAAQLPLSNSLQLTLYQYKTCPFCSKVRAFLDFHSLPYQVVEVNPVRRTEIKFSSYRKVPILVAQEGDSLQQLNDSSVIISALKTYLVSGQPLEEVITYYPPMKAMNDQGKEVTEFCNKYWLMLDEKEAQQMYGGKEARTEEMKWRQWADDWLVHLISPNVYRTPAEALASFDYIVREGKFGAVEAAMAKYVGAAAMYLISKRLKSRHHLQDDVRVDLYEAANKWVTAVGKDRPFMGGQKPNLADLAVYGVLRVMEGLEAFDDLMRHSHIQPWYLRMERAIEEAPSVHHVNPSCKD
# T9 sequence (P59325 whole entry): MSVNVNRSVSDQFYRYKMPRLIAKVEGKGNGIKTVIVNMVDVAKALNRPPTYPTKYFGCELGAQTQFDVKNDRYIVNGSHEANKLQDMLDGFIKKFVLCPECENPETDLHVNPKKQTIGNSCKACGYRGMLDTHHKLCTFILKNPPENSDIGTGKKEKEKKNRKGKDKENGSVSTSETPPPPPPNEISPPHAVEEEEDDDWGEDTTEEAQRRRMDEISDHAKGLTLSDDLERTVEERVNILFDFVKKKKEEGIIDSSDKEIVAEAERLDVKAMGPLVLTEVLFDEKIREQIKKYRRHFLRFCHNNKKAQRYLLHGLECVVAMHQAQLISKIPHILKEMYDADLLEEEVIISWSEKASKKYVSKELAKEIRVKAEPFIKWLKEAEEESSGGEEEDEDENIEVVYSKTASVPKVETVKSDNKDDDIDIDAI
# T10 sequence (Q99J47 whole entry): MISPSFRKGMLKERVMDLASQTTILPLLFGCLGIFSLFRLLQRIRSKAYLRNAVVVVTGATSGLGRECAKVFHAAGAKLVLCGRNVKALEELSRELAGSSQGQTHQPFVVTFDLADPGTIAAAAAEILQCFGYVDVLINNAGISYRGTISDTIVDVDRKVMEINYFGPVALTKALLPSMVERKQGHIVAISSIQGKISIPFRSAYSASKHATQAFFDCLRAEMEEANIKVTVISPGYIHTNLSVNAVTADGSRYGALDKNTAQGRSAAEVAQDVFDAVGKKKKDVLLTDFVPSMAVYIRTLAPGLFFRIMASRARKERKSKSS
# T5 sequence (Q78ZA7 whole entry): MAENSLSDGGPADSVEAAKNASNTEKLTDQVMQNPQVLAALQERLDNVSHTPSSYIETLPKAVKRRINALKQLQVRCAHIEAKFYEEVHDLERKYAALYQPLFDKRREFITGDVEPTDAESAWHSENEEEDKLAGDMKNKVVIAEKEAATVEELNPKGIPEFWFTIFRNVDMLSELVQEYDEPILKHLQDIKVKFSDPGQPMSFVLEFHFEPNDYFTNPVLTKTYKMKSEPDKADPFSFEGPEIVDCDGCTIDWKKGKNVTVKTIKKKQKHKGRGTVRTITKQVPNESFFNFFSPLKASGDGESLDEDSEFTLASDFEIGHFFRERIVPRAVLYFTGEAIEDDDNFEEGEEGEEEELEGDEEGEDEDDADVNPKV
# T8 sequence (Q9Z2Z6 whole entry): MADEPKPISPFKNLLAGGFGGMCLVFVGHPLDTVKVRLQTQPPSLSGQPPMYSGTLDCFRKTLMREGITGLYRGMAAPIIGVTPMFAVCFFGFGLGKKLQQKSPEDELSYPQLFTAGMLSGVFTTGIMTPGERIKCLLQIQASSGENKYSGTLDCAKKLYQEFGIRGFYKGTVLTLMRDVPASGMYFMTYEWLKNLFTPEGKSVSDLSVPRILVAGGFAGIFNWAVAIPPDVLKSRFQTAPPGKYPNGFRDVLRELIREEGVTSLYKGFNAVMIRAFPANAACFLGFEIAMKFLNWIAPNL
# T1 sequence (Q8BJ03 whole entry): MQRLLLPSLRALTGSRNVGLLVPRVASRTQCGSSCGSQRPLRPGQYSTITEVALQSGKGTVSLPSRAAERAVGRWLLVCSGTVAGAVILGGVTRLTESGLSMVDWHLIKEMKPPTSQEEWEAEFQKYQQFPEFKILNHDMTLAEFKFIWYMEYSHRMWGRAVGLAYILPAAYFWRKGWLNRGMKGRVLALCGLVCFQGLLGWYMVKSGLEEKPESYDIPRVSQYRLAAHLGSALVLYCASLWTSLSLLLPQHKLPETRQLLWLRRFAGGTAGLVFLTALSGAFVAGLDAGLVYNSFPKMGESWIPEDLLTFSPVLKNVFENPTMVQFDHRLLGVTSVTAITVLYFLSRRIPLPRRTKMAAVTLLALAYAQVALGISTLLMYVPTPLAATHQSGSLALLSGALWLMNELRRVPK
# T2 sequence (Q9JKW0 whole entry): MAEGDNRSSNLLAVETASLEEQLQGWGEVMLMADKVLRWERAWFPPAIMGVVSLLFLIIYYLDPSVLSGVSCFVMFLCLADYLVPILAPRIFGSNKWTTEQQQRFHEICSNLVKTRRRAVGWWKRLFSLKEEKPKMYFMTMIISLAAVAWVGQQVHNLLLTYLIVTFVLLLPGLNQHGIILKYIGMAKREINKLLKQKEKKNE
smiles,measurement,setting,value
"C#CCCCC1(CC/C=C\C/C=C\C/C=C\CCCC(=O)NCCO)N=N1 [AEA-DA, (5Z,8Z,11Z)-N-(2-hydroxyethyl)-14-(3-(pent-4-yn-1-yl)-3H-diazirin-3-yl)tetradeca-5,8,11-trienamide]",Times observed,[1],2
same,Times observed,[2],2
same,Times observed,"[3]; AEA-DA-modified peptide P4HB P09103 135-165, SEQ ID NO 77",3
same,Times observed,"[3]; AEA-DA-modified peptide P4HB P09103 233-250, SEQ ID NO 78",10
same,Times observed,"[4]; AEA-DA-modified peptide NAMPT Q99KQ4 175-190, SEQ ID NO 64",10
same,Times observed,"[4]; AEA-DA-modified peptide NAMPT Q99KQ4 303-324, SEQ ID NO 65",2
same,Times observed,[5],3
same,Times observed,[6],2
same,Times observed,[7],3
same,Times observed,[8],4
same,Times observed,[9],12
same,Times observed,[10],2
same,Times observed,[11],9
